One cell line from the supplement of paper PMC10307832 can be followed below.

Common to all, as to assay: relative viability (nuclei count vs DMSO), 5 days (fraction); higher = more cells survive
Compound in the test “R406 + Pictilisib”: COc1cc(Nc2ncc(F)c(Nc3ccc4c(n3)NC(=O)C(C)(C)O4)n2)cc(OC)c1OC [R406] + CS(=O)(=O)N1CCN(Cc2cc3nc(-c4cccc5[nH]ncc45)nc(N4CCOCC4)c3s2)CC1 [Pictilisib] (partner 1 µM)
In short, it runs like this: (§1)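 Medians of duplicate plates are given as relative viability. That measure is the nuclei count in treated wells divided by the count in vehicle wells. Counts were taken on 4× images of lung cancer cell lines in 1536-well plates, 5 days after pin-tool dosing the day after seeding with one drug alone or a fixed anchor-drug dose plus five library-drug doses (not always all listed) in √10 steps.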

Compound in the test “R406 + Phenformin”: COc1cc(Nc2ncc(F)c(Nc3ccc4c(n3)NC(=O)C(C)(C)O4)n2)cc(OC)c1OC [R406] + N=C(N)NC(=N)NCCc1ccccc1 [Phenformin] (partner 250 µM)
In short, it runs like this:
as §1

Compound in the test “Daporinad + Foretinib”: O=C(/C=C/c1cccnc1)NCCCCC1CCN(C(=O)c2ccccc2)CC1 [Daporinad] + COc1cc2c(Oc3ccc(NC(=O)C4(C(=O)Nc5ccc(F)cc5)CC4)cc3F)ccnc2cc1OCCCN1CCOCC1 [Foretinib] (partner 0.25 µM)
In short, it runs like this: as §1

Compound in the test “Daporinad + Pemetrexed”: O=C(/C=C/c1cccnc1)NCCCCC1CCN(C(=O)c2ccccc2)CC1 [Daporinad] + Nc1nc2[nH]cc(CCc3ccc(C(=O)N[C@@H](CCC(=O)O)C(=O)O)cc3)c2c(=O)[nH]1 [Pemetrexed] (partner 0.2 µM)
The procedure, abridged:
as §1

With UMC-11, the relative viability was 0.864 with R406 + Pictilisib (first compound 0.08 µM); 1.07 with R406 + Pictilisib (first compound 0.253 µM); 0.863 with R406 + Pictilisib (first compound 0.8 µM); 0.568 with R406 + Pictilisib (first compound 2.53 µM); 0.369 with R406 + Pictilisib (first compound 8 µM); 0.356 with R406 + Phenformin (first compound 0.08 µM). The relative viability with R406 + Phenformin (first compound 0.253 µM) worked out at 0.35; in the test with R406 + Phenformin (first compound 0.8 µM), 0.368; with R406 + Phenformin (first compound 2.53 µM), 0.28; with R406 + Phenformin (first compound 8 µM) it was 0.19; with Daporinad + Foretinib (first compound 0.0005 µM), 1.11; with Daporinad + Foretinib (first compound 0.001581 µM), 1.05. For the same cell line, the relative viability in the test with Daporinad + Foretinib (first compound 0.005 µM) was determined as 1.34; with Daporinad + Foretinib (first compound 0.01581 µM), 1.22; with Daporinad + Pemetrexed (first compound 0.0005 µM), 0.746; with Daporinad + Pemetrexed (first compound 0.001581 µM) it was 0.83; with Daporinad + Pemetrexed (first compound 0.005 µM), 0.847; with Daporinad + Pemetrexed (first compound 0.01581 µM), 0.773.
